SMILES	melting point
O=C(NNc1ccccc1)c1ccc(F)cc1F	171 to 173 °C
COc1cc(C(=O)Oc2ccc3c(OC(=O)c4ccc(O)c(OC)c4)c4cc(OC(=O)c5ccc(O)c(OC)c5)ccc4cc3c2)ccc1O	206 °C
CC(C)c1nn(-c2ccc(C(F)(F)F)cn2)cc1CCCOc1cccc(CC(=O)O)c1	82 to 83 °C
OC1CCC(n2cnc3cc(Cl)c(Cl)cc32)C1O (centres undefined)	180 to 182 °C
CC(=O)OC1CCC2(C)C(CCC3C4CCC(C(C)CC(=O)C(=O)N5CCOCC5)C4(C)CC(=O)C32)C1 (centres undefined)	122 to 123 °C
CCOC(=O)C(C)Oc1ccc2c(-c3ccc(Cl)cc3)noc2c1 (centres undefined)	95 °C
O=C(O)C1c2ccccc2C=Cc2ccccc21	244 to 245 °C
COC(=O)Nc1nc2ccc(OS(=O)(=O)c3ccc(-n4ccnc4)cc3)cc2[nH]1	258 °C
CC(C)(C)[Si](C)(C)OC1CN(c2ccc(NC(=O)OCc3ccccc3)cc2F)C1	91 to 93 °C
Cc1noc(NS(=O)(=O)c2ccccc2-c2ccc(-c3ncco3)cc2CNC(C)C(F)(F)F)c1C (centres undefined)	60 to 70 °C
COc1cc2cc(COC(C)=O)c(COC(C)=O)c(C=O)c2cc1OC	154 to 155 °C
O=c1c(CCCc2ccncc2)cc2cccnc2n1-c1cccc([N+](=O)[O-])c1	209 to 210 °C
Cc1oc(-c2ccccc2)nc1CCOc1ccc(CC(Br)C#N)cn1 (centres undefined)	93 to 94 °C
CNC(=O)c1cccc(C2=NC(C)(C)Cc3cc(OC)c4c(c32)CC(C)(C)O4)c1	206 to 207 °C
N#Cc1cccc(/C=C/c2cc(Cl)cnc2N)c1	> 275 °C
Cc1nc2scc(C)n2c(=O)c1CCN1CCC(=C(c2ccc(F)cc2)c2ccc(F)cc2)CC1	184 °C
O=C(O)c1cc2cc(C(=O)c3cccs3)c(Cl)c(Cl)c2o1	243 to 245 °C
COC(=O)CCCCCCC1=CCC(O)C1=O (centres undefined)	62.5 to 63.5 °C
Cc1c(I)ccc2c1C(=O)NS2(=O)=O	257 to 258 °C
CC(C)(C)c1ccc2oc(-c3ccc(C=Cc4ccc(-n5ncc(-c6ccccc6)n5)cc4)cc3)nc2c1	230 to 231 °C
CCC1=C(C(=O)OC)C(c2cccc([N+](=O)[O-])c2)c2c(nc(N3CCOCC3)nc2N2CCOCC2)N1 (centres undefined)	225 °C
Cc1[nH]c(=O)c(-c2csc(-c3ccnc(NCC4CC4)c3)n2)cc1C(=O)NCC1CC1	> 260 °C
Cc1cccc(C)c1NC(=O)CCCl	131 °C
Cn1c(=O)c(-c2c(Cl)cccc2Cl)cc2cnc(N)cc21	239 to 240 °C

SMILES	melting point
CCOC(=O)c1c(-c2cccs2)nn(CC)c(=O)c1Nc1cccnc1	124 to 125 °C
COc1cc2c(cc1OC)/C(=N/OCc1ccc3nonc3c1)CC2	163 to 166 °C
NS(=O)(=O)c1cc(C(=O)OCC(=O)N2CCC(CO[N+](=O)[O-])CC2)c(NCc2ccco2)cc1Cl	115 to 117 °C
COc1ccc(CC(=O)c2ccc(OC)c(OC)c2)cc1OC	105 to 107 °C
NC(=O)c1sc2nc(N3CCC(NCC(O)c4ccc5ccccc5n4)CC3)cc(C(F)(F)F)c2c1N (centres undefined)	198 to 201 °C
O=C(NC(=O)c1c(F)cccc1F)Nc1ccc(F)c(C(F)(F)F)c1Cl	214 °C
CC(C)(C)OC(=O)Cn1c2ccccc2c2c(N3CCCC3)nc(N3CCCC3)nc21	131 to 133 °C
CC(C)Sc1ccc(NC(=O)C2(C)CC2)cc1C(F)(F)F	103 to 105 °C
CS(=O)(=O)c1ccc(-c2cnn(CC(F)(F)F)c(=O)c2SC2CCCCC2)cc1	165 to 167 °C
COc1ccc(NC(=O)c2ccc(COc3ccc4c(c3)CCC(CCN3CCCCC3)C4)cc2)cc1OC (centres undefined)	178 to 180 °C
C#Cc1ncn2c1CN(C)C(=O)c1c(Cl)cccc1-2	194 to 195 °C
COC(=O)c1cc2ccc(SCCCc3cc4c(cc3OCc3ccccc3)CC(CCc3ccccc3)O4)cc2nc1OC (centres undefined)	96 to 98 °C
Cc1occc1S(=O)(=O)C(C)(Cc1ccc(OCCN2CCCCC2)cc1)C(=O)NO (centres undefined)	115 to 117 °C
CN(C)C=CC(=O)c1cccc(N(C)C(=O)C2CC2)c1	120 to 122 °C
O=C(O)c1ccccc1SCCCCOc1ccc(C=Cc2ccncc2)cc1	229 to 231 °C
CCN(CC)c1ccc2nc3c4ccccc4c(=Nc4cccnc4)cc-3oc2c1	198 to 199 °C
COc1ccc2c(c1)CCC1C2CCC2(C)C(OC(C)(C)C)CCC12 (centres undefined)	91 to 92.5 °C
N#CCc1c(Cl)cccc1Br	82 to 84 °C
CC1(C)c2ccccc2N2Cc3cc([N+](=O)[O-])ccc3OC21C (centres undefined)	180 °C
COCc1cc(C(O)CNCCCCCCOCCCc2ccccc2)ccc1O (centres undefined)	68 to 70 °C
N#Cc1nn(-c2c(Cl)cc(C(F)(F)F)cc2Cl)c(N2CCCCC2)c1S(=O)(=O)C(F)(F)F	153 to 155 °C
CCCCCCCCOC(=O)NCC1CCC(CNC(=O)OCCCCCCCC)CC1 (centres undefined)	120 to 122 °C
CC(=O)C(=[N+]=[N-])C(=O)c1ccccn1	69 to 74 °C
CCCCCCCCCCOc1cc(OCCCCCCCCCC)cc(C(=O)C(=O)N(CC(=O)O)CC(=O)O)c1	76 to 78 °C

SMILES	melting point
CCCCCS(=O)(=O)NC(=O)CCc1ccc(OC(C)C)cc1Oc1ncc(C(F)(F)F)cc1Cl	94 to 95 °C
O=C(Nc1ccc2cc(CN3CCCC3)ccc2c1)N1CCC(c2ccccc2)CC1	193 to 195 °C
c1ccc2c3c([nH]c2c1)CCCSCC3	106 to 107 °C
CCCCCCCCCCCCCCCCOCC(O)CN1CCC(C#N)(c2ccccc2)CC1 (centres undefined)	69 to 70 °C
CCOCc1cc2ccc(OC)cc2o/c1=N\c1ccccc1	107 to 108 °C
CC(=O)C(=NNc1cccc(C)c1)Sc1ccc(Cl)cc1	112 to 114 °C
COC(=O)C1CC(C#N)(c2cccs2)CCC1=O (centres undefined)	76 to 78 °C
Nc1cccc(Oc2ccc(C(=O)c3cccc(C(=O)c4ccc(Oc5cccc(N)c5)cc4)c3)cc2)c1	147 to 149 °C
Brc1nnc2n1C=Cc1ccccc1C2	169 to 170 °C
CN1CC2(COc3cc4c(cc32)OCO4)c2c(Br)cccc21 (centres undefined)	155 to 157 °C
O=C(O)CCNC(=O)CCNC(=O)N1CCC2(CCNCC2)CC1	105 to 110 °C
CCCn1ncc2c(=O)[nH]c(-c3cc(C(=O)O)ccc3OCC)nc21	277 to 279 °C
Fc1ccc(-c2ccccc2)c(F)c1	63 to 65 °C
COC(=O)c1cc(C(=O)c2cccc(Cl)c2)cn1C	126 °C
O=C(C=C(c1ccccc1Cl)n1cncn1)c1ccccc1	79 to 81 °C
COc1cc(OC)c2c(=O)c3oc4ccc(OC)cc4c3oc2c1	262 to 264 °C
CC1(C)Oc2ccc(C#N)cc2[C@@H](NC(=O)Nc2ccccc2)[C@@H]1O (relative stereo)	226 to 227 °C
O=C(N[C@@H](CSC(=O)c1ccccc1)C(=O)N[C@@H](Cc1c[nH]c2ccccc12)C(=O)O)c1ccccc1	175 to 178 °C
CCCCn1nc(C)c(C(=O)OC)c1Cc1ccc(-c2ccccc2S(N)(=O)=O)cc1	49 to 54 °C
COc1cc2c3c(cccc3c1CNC(C)=O)C(=O)N(O)C2=O	237 to 239 °C
N#CCNC(=O)c1nn(C2CCCCO2)cc1NC(=O)c1ccccn1 (centres undefined)	213 to 214 °C
CC(OC(=O)c1ccccc1)P(=O)(O)OC(CCCCN)C(=O)N1CCCC1C(=O)O (centres undefined)	186 to 192 °C
COc1ccc(-c2ccc(C(C)=NOCCOc3ccc(CC4SC(=O)NC4=O)cc3)cc2)c(OC)c1 (centres undefined)	186 to 188 °C
COCCOCCn1cc(C(=O)NCc2ccc(Cl)cc2)c(=O)c2cc(CN(C)[C@H](C)[C@@H](O)c3ccccc3)ccc21	106 to 109 °C

SMILES	melting point
CCOP(=O)(CNc1cc(Oc2ccc(C(F)(F)F)cc2Cl)ccc1[N+](=O)[O-])OCC	78 to 79 °C
COc1cc(CN2CCN(C(=O)c3cc4ccccc4oc3=O)CC2)cc(OC)c1OC	171 to 173 °C
NC(=O)C1CCc2ccccc2O1 (centres undefined)	125 to 127 °C
O=C(C=Cc1cc(OC(=O)c2ccccc2)c(OC(=O)c2ccccc2)c([N+](=O)[O-])c1)c1ccccc1	206 to 210 °C
O=C1c2ccccc2C(=O)N1CCCCCCc1cncnc1	124 to 126 °C
O=C(NC(Cc1ccc(OCc2ccccc2)cc1)C(=O)O)c1cn2nc(SCc3ccccc3)ccc2n1 (centres undefined)	178 to 179 °C
Cc1sc2c(Sc3ccccc3)c3ccccc3c(-c3cc(Br)c(O[C@H](C)C(=O)O)c(Br)c3)c2c1C	237 to 239 °C
OCCOc1ccc(Oc2ccc(F)cc2)cc1	74 to 76 °C
CCC(=O)Nc1nc(-c2cc(C)cc(C)c2)c(-c2ccncc2)s1	291 to 293 °C
O=C1CCC(N2C(=O)c3ccc([N+](=O)[O-])cc3C2=O)C(=O)N1 (centres undefined)	228 to 230 °C
CN(C)Cc1ccccc1Sc1ccc(F)cc1N	56 to 58 °C
CC(C)C(NC(=O)OCc1ccccc1)C(=O)NC(Cc1ccccc1)C(O)C(O)C(Cc1ccccc1)NC(=O)C(NC(=O)OCc1ccccc1)C(C)C (centres undefined)	231 to 232 °C
CNCCn1nc2c3c(c(NCCNCCO)ccc31)C(=O)c1c(OCc3ccccc3)ccc(OCc3ccccc3)c1-2	186 to 189 °C
COc1cccc(C2CCCCN(C)C2=O)c1 (centres undefined)	73 to 74 °C
O=C(CN(C(=O)c1cccc(C(F)(F)F)c1)c1ccccc1)Nc1ccc(Cl)c(Cl)c1	130 to 132 °C
CCS(=O)(=O)c1ccc(C(CC2CCCC2)C(=O)O)cc1 (centres undefined)	137 to 138 °C
CCn1ncc2c1ncc1c(Nc3cccc(C(F)(F)F)c3)nc3cc(C)nn3c12	205 to 206 °C
Cc1ccc(S(=O)(=O)N(C)c2ccc(Cl)cc2C(N)=O)cc1	176 to 178 °C
CCOc1cc(NC(=O)C2=C(C(=O)N(CC)CC)CCCC2)ccc1Cl	98 to 100 °C
N#Cc1ccc2c(c1)C(=O)c1cccn1CC2	127 to 128 °C
O=C(CCc1ccc(NC2=NCCN2)cc1)c1ccc(F)cc1	190 to 191 °C
O=C(Oc1ccc2cc3cc(OC(=O)c4ccc(O)cc4)ccc3cc2c1)c1ccc(O)cc1	324 °C

Reference: a melting point compilation (Tetko et al.; mined from patent text by program, amines drawn as free bases though some values may be those of a salt)
